# Values of other authors, collected in patent publication US9693981B2 (INTEC PHARMA LTD., priority 2008, dated 2017).
# Experiments:
# [1] = according to the USP 30
# [2] = high-fat/heavy meal compared to the fasted state, healthy adults
structure (smiles),measurement,setting,value
CCN(C(C)=O)c1cccc(-c2ccnc3c(C#N)cnn23)c1 [Zaleplon],solubility,[1],very slightly soluble
same,AUC,[2],not significantly affected
same,delay of Tmax,[2],approximately 2 hours
same,reduction of Cmax,[2],approximately 35%
